# Active and inactive are the calls of the source. No cut-off for these calls is given here.
# Tests used:
# Mucor circinelloides [1] = test: Antifungal activity against Mucor circinelloides R7B wild type strain assessed as reduction in spore germination at 50 ug/ml relative to control; format: functional; parameters: scale not given: the % may be the effect or the level left; conditions: dose 50 µg/ml
# Mucor circinelloides [2] = test: Antifungal activity against Mucor circinelloides M5 strain assessed as reduction in spore germination at 50 ug/ml relative to control; format: functional; parameters: scale not given: the % may be the effect or the level left; conditions: dose 50 µg/ml
# Mucor circinelloides [3] = test: Antifungal activity against Mucor circinelloides M5 strain assessed as reduction in spore germination at 25 ug/ml relative to control; format: functional; parameters: scale not given: the % may be the effect or the level left; conditions: dose 25 µg/ml
# Mucor circinelloides [4] = test: Antifungal activity against Mucor circinelloides R7B wild type strain assessed as reduction in spore germination at 100 ug/ml relative to control; format: functional; parameters: scale not given: the % may be the effect or the level left; conditions: dose 100 µg/ml
# Mucor circinelloides [5] = test: Antifungal activity against Mucor circinelloides M5 strain assessed as reduction in spore germination at 100 ug/ml relative to control; format: functional; parameters: scale not given: the % may be the effect or the level left; conditions: dose 100 µg/ml
# Mucor circinelloides [6] = test: Antifungal activity against Mucor circinelloides R7B wild type strain assessed as reduction in spore germination at 150 ug/ml relative to control; format: functional; parameters: scale not given: the % may be the effect or the level left; conditions: dose 150 µg/ml
# Mucor circinelloides [7] = test: Antifungal activity against Mucor circinelloides R7B wild type strain assessed as reduction in spore germination at 25 ug/ml relative to control; format: functional; parameters: scale not given: the % may be the effect or the level left; conditions: dose 25 µg/ml
# Mucor circinelloides [8] = test: Antifungal activity against Mucor circinelloides M5 strain assessed as reduction in spore germination at 150 ug/ml relative to control; format: functional; parameters: scale not given: the % may be the effect or the level left; conditions: dose 150 µg/ml
# Mucor circinelloides [9] = test: Antifungal activity against Mucor circinelloides M5 strain assessed as non-germinated spores and undifferentiated hyphae at 50 ug/ml by microscopic analysis; format: functional, organism-based; conditions: dose 50.0 µg/ml
# Mucor circinelloides [10] = test: Antifungal activity against Mucor circinelloides M5 strain assessed as complete absence of mycelia at 100 to 150 ug/ml by microscopic analysis; format: functional, organism-based; conditions: dose 100-150 µg/ml
# [11] = Cytotoxicity against mouse NIH/3T3 cells assessed as reduction in cell viability at 50 ug/ml incubated for 48 hrs by MTT assay (reference value: 93.8 +/- 4.9 %); format: toxicity, cell-based, NIH3T3; conditions: at 50 µg/mL, read-out: Activity
# [12] = biological target: T1, Lanosterol 14-alpha demethylase (Mus musculus, UniProt Q8K0C4); test: Inhibition of CYP51 in mouse NIH/3T3 cells assessed as specific enzymatic activity at 50 ug/ml incubated for 48 hrs by ELISA analysis; format: ADME, cell-based; conditions: nih/3t3, 48 h, dose 50 µg/ml
# T1 sequence (Q8K0C4 whole entry): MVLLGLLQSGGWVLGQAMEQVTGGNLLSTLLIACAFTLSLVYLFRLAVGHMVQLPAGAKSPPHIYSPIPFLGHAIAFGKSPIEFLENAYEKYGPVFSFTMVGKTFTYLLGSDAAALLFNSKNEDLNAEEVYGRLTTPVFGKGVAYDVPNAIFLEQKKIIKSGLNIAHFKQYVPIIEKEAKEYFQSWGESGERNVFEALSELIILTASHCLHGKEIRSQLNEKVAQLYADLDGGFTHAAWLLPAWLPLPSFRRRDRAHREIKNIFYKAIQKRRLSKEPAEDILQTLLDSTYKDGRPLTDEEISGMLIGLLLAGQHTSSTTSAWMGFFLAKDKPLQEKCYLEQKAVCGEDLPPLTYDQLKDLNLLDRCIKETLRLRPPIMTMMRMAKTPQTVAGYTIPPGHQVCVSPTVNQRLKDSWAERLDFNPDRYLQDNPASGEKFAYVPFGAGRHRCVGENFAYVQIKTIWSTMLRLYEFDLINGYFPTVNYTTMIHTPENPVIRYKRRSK
# [13] = Cytotoxicity against mouse NIH/3T3 cells assessed as reduction in cell viability at 100 ug/ml incubated for 48 hrs by MTT assay (reference value: 93.8 +/- 4.9 %); format: toxicity, cell-based, NIH3T3; conditions: at 100 µg/mL, read-out: Activity
# [14] = biological target: T1, Lanosterol 14-alpha demethylase; test: Inhibition of CYP51 in mouse NIH/3T3 cells assessed as specific enzymatic activity at 100 ug/ml incubated for 48 hrs by ELISA analysis; format: ADME, cell-based; conditions: nih/3t3, 48 h, dose 100 µg/ml
# [15] = biological target: T1, Lanosterol 14-alpha demethylase; test: Inhibition of CYP51 in mouse NIH/3T3 cells assessed as specific enzymatic activity at 200 ug/ml incubated for 48 hrs by ELISA analysis; format: ADME, cell-based; conditions: nih/3t3, 48 h, dose 200 µg/ml
# [16] = Cytotoxicity against mouse NIH/3T3 cells assessed as reduction in cell viability at 200 ug/ml incubated for 48 hrs by MTT assay (reference value: 93.8 +/- 4.9 %); format: toxicity, cell-based, NIH3T3; conditions: at 200 µg/mL, read-out: Activity
# Mucor circinelloides [17] = test: Antifungal activity against Mucor circinelloides R7B wild type strain assessed as non-germinated spores and undifferentiated hyphae at 50 ug/ml by microscopic analysis; format: functional, organism-based; conditions: dose 50.0 µg/ml
# Mucor circinelloides [18] = test: Antifungal activity against Mucor circinelloides M5 strain assessed as few mycelia with several spores at 50 ug/ml by microscopic analysis; format: functional, organism-based; conditions: dose 50.0 µg/ml
# Mucor circinelloides [19] = test: Antifungal activity against Mucor circinelloides R7B wild type strain assessed as non-germinated spores at 100 to 150 ug/ml by microscopic analysis; format: functional, organism-based; conditions: dose 100-150 µg/ml
# [20] = Cytotoxicity against mouse NIH/3T3 cells assessed as reduction in cell viability at 25 ug/ml incubated for 48 hrs by MTT assay (reference value: 93.8 +/- 4.9 %); format: toxicity, cell-based, NIH3T3; conditions: at 25 µg/mL, read-out: Activity
# [21] = Cytotoxicity against mouse NIH/3T3 cells assessed as reduction in cell viability at 150 ug/ml incubated for 48 hrs by MTT assay (reference value: 93.8 +/- 4.9 %); format: toxicity, cell-based, NIH3T3; conditions: at 150 µg/mL, read-out: Activity
# [22] = biological target: T1, Lanosterol 14-alpha demethylase; test: Inhibition of CYP51 in mouse NIH/3T3 cells assessed as specific enzymatic activity at 25 ug/ml incubated for 48 hrs by ELISA analysis; format: ADME, cell-based; conditions: nih/3t3, 48 h, dose 25 µg/ml
# Mucor circinelloides [23] = test: Antifungal activity against Mucor circinelloides M5 strain assessed as non-germinated spores at 100 to 150 ug/ml by microscopic analysis; format: functional, organism-based; conditions: dose 100-150 µg/ml
# [24] = biological target: T1, Lanosterol 14-alpha demethylase; test: Inhibition of CYP51 in mouse NIH/3T3 cells assessed as specific enzymatic activity at 150 ug/ml incubated for 48 hrs by ELISA analysis; format: ADME, cell-based; conditions: nih/3t3, 48 h, dose 150 µg/ml
# Mucor circinelloides [25] = test: Antifungal activity against Mucor circinelloides R7B wild type strain assessed as complete absence of mycelia at 100 to 150 ug/ml by microscopic analysis; format: functional, organism-based; conditions: dose 100-150 µg/ml
# Mucor circinelloides [26] = test: Antifungal activity against Mucor circinelloides R7B wild type strain assessed as few mycelia with several spores at 50 ug/ml by microscopic analysis; format: functional, organism-based; conditions: dose 50.0 µg/ml
structure (smiles),measurement,setting,value
COc1cc(-c2ccc(F)cc2)nc2ccccc12,Activity,Mucor circinelloides [1],60.3%
same,Activity,Mucor circinelloides [2],47.9%
same,Activity,Mucor circinelloides [3],78.4%
same,Activity,Mucor circinelloides [4],17.1%
same,Activity,Mucor circinelloides [5],20.6%
same,Activity,Mucor circinelloides [6],12.6%
same,Activity,Mucor circinelloides [7],73.1%
same,Activity,Mucor circinelloides [8],14.9%
FC(F)(F)c1ccc(Oc2cc(-c3cccc(Cl)c3)nc3ccccc23)cc1,Activity,Mucor circinelloides [4],42.2%
same,Activity,Mucor circinelloides [5],38.3%
COc1cc(-c2ccc(C)cc2)nc2ccccc12,Activity,Mucor circinelloides [4],81.9%
same,Activity,Mucor circinelloides [5],84.9%
O=[N+]([O-])c1ccc(Oc2cc(-c3cc(F)cc(F)c3)nc3ccccc23)cc1,Activity,Mucor circinelloides [9],Active
same,Activity,Mucor circinelloides [10],Active
same,"viability at 48 h, 50 ug/ml",[11],91.8%
same,Activity,[12],11.21 U/mg
same,"viability at 48 h, 100 ug/ml",[13],84%
same,Activity,[14],6.02 U/mg
same,Activity,Mucor circinelloides [1],28.3%
same,Activity,[15],0.4 U/mg
same,"viability at 48 h, 200 ug/ml",[16],15.5%
same,Activity,Mucor circinelloides [2],37.3%
same,Activity,Mucor circinelloides [17],Active
same,Activity,Mucor circinelloides [3],82.5%
same,Activity,Mucor circinelloides [4],7.9%
same,Activity,Mucor circinelloides [18],Active
same,Activity,Mucor circinelloides [5],11.2%
same,Activity,Mucor circinelloides [19],Active
same,"viability at 48 h, 25 ug/ml",[20],94.5%
same,Activity,Mucor circinelloides [6],5.8%
same,"viability at 48 h, 150 ug/ml",[21],18.3%
same,Activity,[22],16.7 U/mg
same,Activity,Mucor circinelloides [23],Active
same,Activity,[24],2.56 U/mg
same,Activity,Mucor circinelloides [25],Active
same,Activity,Mucor circinelloides [7],83.9%
same,Activity,Mucor circinelloides [8],7.9%
same,Activity,Mucor circinelloides [26],Active
Cc1cccc(-c2cc(Oc3ccc([N+](=O)[O-])cc3)c3ccccc3n2)c1,Activity,Mucor circinelloides [4],98.1%
same,Activity,Mucor circinelloides [5],98.1%
COc1cc(-c2cc(F)cc(F)c2)nc2ccccc12,Activity,Mucor circinelloides [4],32.8%
same,Activity,Mucor circinelloides [5],29.7%
Clc1cccc(-c2cc(Oc3ccccc3)c3ccccc3n2)c1,Activity,Mucor circinelloides [4],89.1%
same,Activity,Mucor circinelloides [5],85.6%
Fc1cc(F)cc(-c2ccc3ccccc3n2)c1,Activity,Mucor circinelloides [4],57.5%
same,Activity,Mucor circinelloides [5],59.5%
COc1cc(-c2ccccc2)nc2ccccc12,Activity,Mucor circinelloides [4],97.8%
same,Activity,Mucor circinelloides [5],95.8%
Clc1ccc(-c2cc(Oc3ccccc3)c3ccccc3n2)cc1Cl,Activity,Mucor circinelloides [4],60.8%
same,Activity,Mucor circinelloides [5],57.8%
COc1ccc(-c2cc(Oc3ccccc3)c3ccccc3n2)cc1OC,Activity,Mucor circinelloides [4],98.1%
same,Activity,Mucor circinelloides [5],98.2%
c1ccc(-c2ccc3ccccc3n2)cc1 [2-PHENYLQUINOLINE],Activity,Mucor circinelloides [4],98.1%
same,Activity,Mucor circinelloides [5],98.2%
Clc1ccc(-c2cc(Oc3ccccc3)c3ccccc3n2)cc1,Activity,Mucor circinelloides [4],36.1%
same,Activity,Mucor circinelloides [5],32.3%
Cc1cc(C)cc(-c2ccc3ccccc3n2)c1,Activity,Mucor circinelloides [4],84.9%
same,Activity,Mucor circinelloides [5],87.6%

# Reference: ChEMBL document CHEMBL5143615, “Novel 2-aryl-4-aryloxyquinoline-based fungistatics for Mucor circinelloides. Biological evaluation of activity, QSAR and docking study” (Bioorg Med Chem Lett, 2022)
